# Data taken from PMC6853154 (Clinical and Translational Science, 2019).
# “Also recorded” adds a separate entry of the source. Like-named read-outs stand apart in the source and are kept apart here.
# Legend:
# [1] = format: in vivo, human; details: for AUC(0-inf) / Cmax / Tmax / half-life: human, plasma, po; for AUC0–∞, mean percent change / Cmax, mean percent change / t1/2, mean percent change: multiple doses vs single dose of efavirenz
# CYP1A2 [2] = details: coadministration of potent CYP1A2 inhibitor; cited from earlier work
# CYP1A2 [3] = target: T1, CYP1A2 (Homo sapiens, UniProt P05177); details: human liver microsomal preparations and/or expressed enzymes; cited from earlier work
# T1 sequence (P05177 1-516): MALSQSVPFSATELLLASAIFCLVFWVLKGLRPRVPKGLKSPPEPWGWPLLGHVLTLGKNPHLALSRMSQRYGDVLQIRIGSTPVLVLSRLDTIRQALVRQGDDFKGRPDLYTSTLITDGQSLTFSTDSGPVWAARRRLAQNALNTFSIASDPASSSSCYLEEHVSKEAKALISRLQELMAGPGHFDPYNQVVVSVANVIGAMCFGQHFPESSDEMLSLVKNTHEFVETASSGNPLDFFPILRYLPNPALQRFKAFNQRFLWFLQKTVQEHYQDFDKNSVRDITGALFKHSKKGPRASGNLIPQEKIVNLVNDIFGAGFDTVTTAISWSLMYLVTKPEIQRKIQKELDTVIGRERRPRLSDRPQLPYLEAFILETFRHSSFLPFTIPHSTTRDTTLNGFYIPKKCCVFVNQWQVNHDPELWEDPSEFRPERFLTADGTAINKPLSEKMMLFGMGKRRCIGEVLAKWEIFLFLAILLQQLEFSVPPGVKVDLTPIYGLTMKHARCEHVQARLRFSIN
# CYP1A2 [4] = target: T1, CYP1A2; test: In vivo CYP1A2 activity from plasma paraxanthine/caffeine metabolic ratio
# CYP1A2 [5] = target: T1, CYP1A2; test: In vivo CYP1A2 activity from urinary caffeine metabolic ratio
# CYP2A6 [6] = test: In vivo CYP2A6 activity from urinary caffeine metabolic ratio; set-up: species or system human
# xanthine oxidase (XO) = xanthine oxidase (XO) (Homo sapiens, UniProt P47989); test: In vivo xanthine oxidase activity from urinary caffeine metabolic ratio; details: for XO activity, urinary MR (1 MU)/(1 MX + 1 MU): mean ± SD
# [7] = target: T2, N‐acetyltransferase 2 (NAT2) (Homo sapiens, UniProt P11245); test: In vivo NAT2 activity from urinary caffeine metabolic ratio; details: for NAT2 activity, urinary MR AFMU/(AFMU + 1 MU + 1 MX): mean ± SD
# T2 sequence (P11245 1-290): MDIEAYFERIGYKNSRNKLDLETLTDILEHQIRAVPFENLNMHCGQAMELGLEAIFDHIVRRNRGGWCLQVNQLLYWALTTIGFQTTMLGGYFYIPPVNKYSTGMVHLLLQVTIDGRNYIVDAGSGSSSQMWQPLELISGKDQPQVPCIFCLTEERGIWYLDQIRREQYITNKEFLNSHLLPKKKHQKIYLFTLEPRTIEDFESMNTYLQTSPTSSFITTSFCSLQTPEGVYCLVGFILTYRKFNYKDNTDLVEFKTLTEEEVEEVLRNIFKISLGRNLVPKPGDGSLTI
# [8] = cited from earlier work
# CYP2A6 [9] = details: human liver microsomal preparations and/or expressed enzymes; cited from earlier work
# CYP2B6 = details: at therapeutically relevant concentrations; cited from earlier work
# CYP2C8 = details: at therapeutically relevant concentrations; cited from earlier work
# CYP2C19 = details: at therapeutically relevant concentrations; cited from earlier work
# CYP2C9 = details: at therapeutically relevant concentrations; cited from earlier work
# [10] = HIV/tuberculosis‐coinfected patients, cited from earlier work
# [11] = Efavirenz plasma exposure in healthy volunteers, also by CYP2B6 genotype; details: following a single dose and multiple doses of efavirenz
# [12] = after multiple doses of efavirenz
# [13] = chronic efavirenz relative to single‐dose phase
# [14] = multiple doses vs single dose of efavirenz
# [15] = multiple doses relative to single‐dose efavirenz
# [16] = multiple doses of efavirenz (600 mg/day, 17 days)
# xanthine oxidase (XO), sequence (P47989 whole entry): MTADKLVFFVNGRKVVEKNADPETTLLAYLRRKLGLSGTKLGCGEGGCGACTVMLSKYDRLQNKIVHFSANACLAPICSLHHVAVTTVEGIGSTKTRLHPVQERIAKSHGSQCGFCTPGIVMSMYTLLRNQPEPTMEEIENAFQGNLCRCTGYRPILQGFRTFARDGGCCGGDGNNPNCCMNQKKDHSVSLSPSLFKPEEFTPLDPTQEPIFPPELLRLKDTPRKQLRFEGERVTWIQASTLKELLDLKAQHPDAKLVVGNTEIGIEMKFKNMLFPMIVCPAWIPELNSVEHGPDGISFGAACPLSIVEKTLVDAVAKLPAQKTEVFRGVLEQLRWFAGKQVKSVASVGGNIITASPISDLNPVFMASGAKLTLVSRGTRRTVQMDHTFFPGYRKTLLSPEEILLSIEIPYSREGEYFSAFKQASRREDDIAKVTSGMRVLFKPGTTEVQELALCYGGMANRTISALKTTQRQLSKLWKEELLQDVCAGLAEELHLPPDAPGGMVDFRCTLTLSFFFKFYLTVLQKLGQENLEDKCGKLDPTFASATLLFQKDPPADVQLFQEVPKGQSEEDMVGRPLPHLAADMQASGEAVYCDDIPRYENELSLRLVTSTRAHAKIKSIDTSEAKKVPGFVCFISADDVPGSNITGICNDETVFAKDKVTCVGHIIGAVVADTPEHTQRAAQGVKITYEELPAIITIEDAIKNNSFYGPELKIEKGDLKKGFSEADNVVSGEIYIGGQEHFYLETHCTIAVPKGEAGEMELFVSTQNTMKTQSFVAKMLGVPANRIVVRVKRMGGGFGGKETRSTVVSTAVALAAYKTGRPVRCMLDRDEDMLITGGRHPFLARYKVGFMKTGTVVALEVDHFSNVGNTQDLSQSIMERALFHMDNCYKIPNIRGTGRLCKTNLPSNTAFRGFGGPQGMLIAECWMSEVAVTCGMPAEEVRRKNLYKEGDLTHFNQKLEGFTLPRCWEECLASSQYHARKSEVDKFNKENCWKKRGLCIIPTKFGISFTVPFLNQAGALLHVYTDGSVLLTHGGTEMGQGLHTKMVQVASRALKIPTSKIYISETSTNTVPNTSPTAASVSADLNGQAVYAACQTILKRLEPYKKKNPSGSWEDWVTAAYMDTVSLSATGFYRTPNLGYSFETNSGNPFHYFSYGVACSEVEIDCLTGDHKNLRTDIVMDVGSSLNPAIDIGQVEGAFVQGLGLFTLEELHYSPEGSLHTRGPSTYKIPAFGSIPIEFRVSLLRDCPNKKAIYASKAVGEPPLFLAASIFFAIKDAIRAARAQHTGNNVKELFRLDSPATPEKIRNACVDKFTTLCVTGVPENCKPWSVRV
structure (smiles),measurement,setting,value
Cn1c(=O)c2c(ncn2C)n(C)c1=O [Caffeine],"Caffeine AUC0‐∞ by CYP2B6 genotype, in words","[1]; both efavirenz treatment groups, compared with *1/*1 genotype",significantly higher for *6/*6 genotype
same,AUC(0-inf),[1],17300 ± 11600 ng·h/mL
same,Cmax,[1],1820 ng/mL
same,Tmax,[1],1 h
same,half-life,[1],7.61 ± 8.29 h
same,AUC(0-inf),[1]; 150 mg,22700 ± 18400 ng·h/mL
same,Cmax,[1]; 150 mg,1900 ng/mL
same,Tmax,[1]; 150 mg,1 h
same,half-life,[1]; 150 mg,8.87 ± 4.98 h
same,"AUC0–∞, mean percent change",[1],46.2%
same,"Cmax, mean percent change",[1],17.4%
same,"t1/2, mean percent change",[1],32.5%
COCCCC/C(=N\OCCN)c1ccc(C(F)(F)F)cc1 [fluvoxamine],Increase of plasma exposure of tizanidine,CYP1A2 [2],up to 30 fold
"Cn1c(=O)[nH]c2ncn(C)c2c1=O [Paraxanthine, 1,7‐dimethylxanthine]",AUC(0-inf),[1],10800 ± 6100 ng·h/mL
same,Cmax,[1],504 ± 236 ng/mL
same,Tmax,[1],7 h
same,half-life,[1],10.8 ± 9.21 h
same,AUC(0-inf),[1]; 150 mg,8600 ± 5800 ng·h/mL
same,Cmax,[1]; 150 mg,358 ± 208 ng/mL
same,Tmax,[1]; 150 mg,7 h
same,half-life,[1]; 150 mg,12.2 ± 7.88 h
same,"AUC0–∞, mean percent change",[1],−8.6%
same,"Cmax, mean percent change",[1],−24.5%
same,"t1/2, mean percent change",[1],26.3%
O=C1Nc2c(O)cc(Cl)cc2[C@@](C#CC2CC2)(C(F)(F)F)O1 [8‐hydroxyefavirenz],"Inhibition/inactivation of CYP1A2 activity in vitro, in words",CYP1A2 [3],no effect
O=C1Nc2ccc(Cl)cc2[C@@](C#CC2CC2)(C(F)(F)F)O1 [efavirenz],Correlation (r s) of CYP1A2 activity with efavirenz AUC0–24 h,CYP1A2 [4]; [12],−0.61
same,Correlation (r s) of percent change in CYP1A2 activity with efavirenz AUC0–24 h,CYP1A2 [4]; [12],−0.41
same,Decrease of CYP1A2 activity (plasma MRs),CYP1A2 [4]; [13],38%
same,Interindividual range of percent change in CYP1A2 activity (plasma MRs),"CYP1A2 [4]; chronic efavirenz relative to single‐dose phase, 58 subjects",−78.2% to 31.7
same,"CYP1A2 activity, plasma MR, mean percent change",CYP1A2 [4]; [14],−38.1%
same,Correlation (r s) of CYP1A2 activity with efavirenz AUC0–∞,CYP1A2 [4]; single 600 mg dose of efavirenz,−0.32
same,Decrease of CYP1A2 activity measured by urinary MRs,CYP1A2 [5]; [13],28.9%
same,Interindividual range of percent change in urine MR (CYP1A2),CYP1A2 [5]; [13],−65.1% to 43.2
same,"CYP1A2 activity, urinary MR, mean percent change",CYP1A2 [5]; [14],−28.9%
same,Increase of CYP2A6 activity,CYP2A6 [6]; [15],85%
same,"CYP2A6 activity, urinary MR, mean percent change",CYP2A6 [6]; [14],85.5%
same,"XO activity, urinary MR (1 MU)/(1 MX + 1 MU)",xanthine oxidase (XO); [16],0.37 ± 0.16
same,"Effect on XO activity (urinary MR), in words",xanthine oxidase (XO); [15],unaffected; also recorded: not significantly altered
same,"XO activity, urinary MR, mean percent change",xanthine oxidase (XO); [14],1.1%
same,"XO activity, urinary MR (1 MU)/(1 MX + 1 MU)",xanthine oxidase (XO); single 600 mg efavirenz dose,0.37 ± 0.16
same,"NAT2 activity, urinary MR AFMU/(AFMU + 1 MU + 1 MX)",[7]; [16],0.32 ± 0.22
same,"Effect on NAT2 activity (urinary MR), in words",[7]; [15],unaffected; also recorded: not significantly altered
same,"NAT2 activity, urinary MR, mean percent change",[7]; [14],4.5%
same,"NAT2 activity, urinary MR AFMU/(AFMU + 1 MU + 1 MX)",[7]; single 600 mg efavirenz dose,0.31 ± 0.21
same,"Efavirenz exposure (AUC0–24), fold higher in CYP2B6*6/*6 vs CYP2B6*1/*1",[8]; multiple doses of efavirenz,2.5 fold
same,"Efavirenz exposure (AUC0–24), fold higher in CYP2B6*6/*6 vs CYP2B6*1/*6",[8]; multiple doses of efavirenz,2 fold
same,"Efavirenz exposure (AUC0–∞), fold higher in CYP2B6*6/*6 vs CYP2B6*1/*1",[8]; single dose of efavirenz,2.1 fold
same,"Efavirenz exposure (AUC0–∞), fold higher in CYP2B6*6/*6 vs CYP2B6*1/*6",[8]; single dose of efavirenz,1.8 fold
same,"Inhibition/inactivation of CYP1A2 activity in vitro, in words",CYP1A2 [3],"does not inhibit/inactivate; also recorded: neither a reversible inhibitor nor a mechanism‐based (i.e., time‐dependent) inactivator"
same,"Inhibition/inactivation of CYP2A6 activity in vitro, in words",CYP2A6 [9],does not inhibit/inactivate
same,"Inhibition of CYP2B6 in vitro, in words",CYP2B6,directly inhibits
same,"Inhibition of CYP2C8 in vitro, in words",CYP2C8,directly inhibits
same,"Inhibition of CYP2C19 in vitro, in words",CYP2C19,directly inhibits
same,"Inhibition of CYP2C9 in vitro, in words",CYP2C9,directly inhibits
same,Reduction of model‐predicted exposure of isoniazid by efavirenz,[10]; fast acetylators,29%
same,"Effect of efavirenz on model‐predicted exposure of isoniazid, in words",[10]; slow acetylators,no effect
same,Between‐subject differences in efavirenz exposure,[11],Approximately sevenfold
